Reference: patent publication US20240174639A1, “PYRIDINE DERIVATIVES USEFUL AS HCN2 MODULATORS” (King's College London, priority 2021, published 2024)
Where a name gives a salt, the structure may show the parent alone.

Assays:
Black6 strain mice = assay: Bradycardia testing, heart rate by MouseOx pulse oximeter (Example 58); assay type: in vivo; settings: awake Black6 mice
Description: Test compounds were administered i.p. to awake, behaving, Black6 strain mice together with a vehicle only control arm. Heart rate in the mice were measured with MouseOx pulse oximeter.
The compound of Example 2 was administered to awake, behaving, Black6 strain mice at doses ranging from 0.05 mg/kg to 2 mg/kg. The effect of the compound of Example 2 on heart beat is shown in FIG. 11 compared to ivabradine administered at a dose of 5 mg/kg i.p, and a vehicle control.

WT Black6 strain mice = assay: Mouse neuropathic pain model (partial sciatic nerve ligation), von Frey filament (Example 57); assay type: in vivo; settings: day 5 after PSNL
Description: The compounds of Example 2 and Example 4 were tested in a mouse neuropathic pain model using WT Black6 strain mice. The model used was analogous to the model described in Seltzer Z, Dubner R, & Shir Y (1990), A novel behavioural model of neuropathic pain disorders produced in rats by partial sciatic nerve injury, Pain 43: 205-218). […] Sci Transl Med 9: eaam6072.
The test compounds were administered i.p. to the mice on day 5 following partial sciatic nerve ligation surgery, average data from 3-4 mice. The mechanical pain threshold was measured by manual von Frey filament applied to hind paw on the operated side, using the “up-down” method. The test compounds were compared to ivabradine at 5 mg/kg i.p. and i.p. injection of vehicle.

HCN4 [1] = molecular target: T1, HCN4 (Homo sapiens, UniProt Q9Y3Q4); assay: HCN4 assay using PatchXpress 7000A (Example 50A); assay type: cell-based; settings: PatchXpress protocol (PX)
T1 sequence (Q9Y3Q4 1-1203): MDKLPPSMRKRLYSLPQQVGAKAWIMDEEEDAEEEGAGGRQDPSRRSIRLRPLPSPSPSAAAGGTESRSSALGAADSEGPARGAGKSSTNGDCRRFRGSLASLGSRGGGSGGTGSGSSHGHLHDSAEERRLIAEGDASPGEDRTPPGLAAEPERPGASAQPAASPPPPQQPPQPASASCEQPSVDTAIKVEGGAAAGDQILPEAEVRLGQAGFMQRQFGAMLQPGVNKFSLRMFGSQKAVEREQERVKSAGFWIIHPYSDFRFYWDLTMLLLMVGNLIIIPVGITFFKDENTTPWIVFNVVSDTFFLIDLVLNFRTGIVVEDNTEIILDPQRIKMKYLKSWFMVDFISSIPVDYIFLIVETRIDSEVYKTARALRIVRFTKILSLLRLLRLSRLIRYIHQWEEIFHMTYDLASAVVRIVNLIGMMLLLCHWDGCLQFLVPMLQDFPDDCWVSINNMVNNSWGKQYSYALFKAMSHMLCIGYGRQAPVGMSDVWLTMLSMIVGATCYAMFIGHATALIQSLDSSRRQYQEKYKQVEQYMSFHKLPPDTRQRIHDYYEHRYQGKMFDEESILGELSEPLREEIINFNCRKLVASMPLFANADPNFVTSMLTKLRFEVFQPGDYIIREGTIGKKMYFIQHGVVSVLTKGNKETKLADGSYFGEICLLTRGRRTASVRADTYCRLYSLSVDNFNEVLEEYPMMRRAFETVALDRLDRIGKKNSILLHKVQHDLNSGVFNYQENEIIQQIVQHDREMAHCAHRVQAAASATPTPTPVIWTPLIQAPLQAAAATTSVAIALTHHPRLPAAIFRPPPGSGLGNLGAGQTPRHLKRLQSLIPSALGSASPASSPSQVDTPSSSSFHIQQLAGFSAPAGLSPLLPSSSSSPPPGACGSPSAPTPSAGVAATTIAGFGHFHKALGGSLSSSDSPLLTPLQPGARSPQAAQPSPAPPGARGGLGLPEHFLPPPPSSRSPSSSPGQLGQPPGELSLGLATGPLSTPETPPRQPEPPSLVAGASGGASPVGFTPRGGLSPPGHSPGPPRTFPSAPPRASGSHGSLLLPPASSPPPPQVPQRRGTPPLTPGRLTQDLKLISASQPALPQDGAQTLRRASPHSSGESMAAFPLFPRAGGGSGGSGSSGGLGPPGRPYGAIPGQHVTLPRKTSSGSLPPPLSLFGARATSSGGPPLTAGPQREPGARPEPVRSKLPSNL
Description: (§1) Solutions for recording HON currents were:
For HCN4, the pulse protocol involved stepping from a holding potential of −30 mV to −130 mV (see FIG. 1B) for 4 seconds to evoke the current.
(§2) The peak inward current measured at the end of the pulse to −110 mV (HCN1 and HCN2) or −130 mV (HCN4) was measured and any leak current subtracted to calculate the HCN current. The HCN current amplitude was measured after each control or compound addition and normalized to the control amplitude (Control A).
(§3) All experiments were performed at room temperature (approximately 22° C.).
(§4) Each test compound concentration was applied to the cell for seven (7) minutes, at which point the next cumulative concentration was applied. 3 mM CsCl was applied to each cell for 2 minutes at the end of each experiment (Control B) to determine 100% inhibition level of the HCN current.

HCN2 [2] = molecular target: T2, HCN2 (Homo sapiens, UniProt Q9UL51); assay: HCN2 assay using PatchXpress 7000A (Example 50A); assay type: cell-based; settings: for IC50: PatchXpress protocol (PX); for selective for HCN2 over HCN4: PatchXpress protocol (PX) assay
T2 sequence (Q9UL51 1-889): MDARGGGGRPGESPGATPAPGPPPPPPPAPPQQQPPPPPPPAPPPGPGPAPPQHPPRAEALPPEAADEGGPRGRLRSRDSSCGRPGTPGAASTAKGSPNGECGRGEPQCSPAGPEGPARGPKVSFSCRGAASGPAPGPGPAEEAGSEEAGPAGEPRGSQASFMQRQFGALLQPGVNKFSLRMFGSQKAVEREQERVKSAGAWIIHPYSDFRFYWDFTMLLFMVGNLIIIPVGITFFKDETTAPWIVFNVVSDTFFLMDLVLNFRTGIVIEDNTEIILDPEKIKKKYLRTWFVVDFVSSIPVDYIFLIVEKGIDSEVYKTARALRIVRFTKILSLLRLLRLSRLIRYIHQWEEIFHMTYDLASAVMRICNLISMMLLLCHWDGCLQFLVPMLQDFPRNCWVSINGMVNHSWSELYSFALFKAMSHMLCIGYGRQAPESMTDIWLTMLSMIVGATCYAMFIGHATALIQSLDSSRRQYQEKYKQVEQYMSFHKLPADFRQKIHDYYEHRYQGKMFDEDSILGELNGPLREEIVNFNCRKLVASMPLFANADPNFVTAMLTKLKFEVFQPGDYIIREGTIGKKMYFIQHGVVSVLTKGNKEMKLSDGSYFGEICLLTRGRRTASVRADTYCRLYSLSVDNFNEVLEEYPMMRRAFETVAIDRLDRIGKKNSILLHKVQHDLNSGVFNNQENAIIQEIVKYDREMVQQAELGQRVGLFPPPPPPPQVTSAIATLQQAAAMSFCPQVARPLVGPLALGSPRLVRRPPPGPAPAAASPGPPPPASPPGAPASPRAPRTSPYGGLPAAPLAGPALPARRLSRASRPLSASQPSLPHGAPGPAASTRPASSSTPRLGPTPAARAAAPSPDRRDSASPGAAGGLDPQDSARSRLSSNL
Description: as §1
For HCN1 and HCN2, the pulse protocol involved stepping from a holding potential of −30 mV to −110 mV (see FIG. 1A) for 2 seconds to evoke the current. The membrane voltage was then stepped back to −30 mV for a further 8 seconds. This sequence was evoked repeatedly every 10 seconds throughout the experiment, starting prior to drug (Control A) and during cumulative additions of 5 increasing compound concentrations, then finally a 100% inhibiting concentration of cesium chloride (CsCl, 3 mM).
as §2, §3, §4

HCN2 [3] = molecular target: T2, HCN2; assay: HCN2 assay using the Sophion Qube (Example 50B); assay type: cell-based; settings: Sophion Qube protocol (SQ)
Description: Solutions for recording HCN currents were:
For HCN1 and HCN2 the cells were held at −30 mV and then stepped to −110 mV for 2 seconds before stepping back to −30 mV, this represents 1 experimental sweep. This voltage protocol was applied every 20 seconds for the duration of the experiment. Both the vehicle (0.3% DMSO) and full block (3 mM CsCl) addition periods were applied for 10 experimental sweeps each. The compound addition period was applied for 30 sweeps.
The currents evoked by the step to −110 mV (HCN1 and HCN2) or −130 mV (HCN4) were measured for the analysis of the percentage inhibition by test compounds. The current amplitudes were measured by subtracting metric A from metric B (see FIG. 2) with inhibition calculated by normalising to the vehicle addition (0.3% DMSO) and full inhibition by 3 mM CsCl in the same well.
In total, compound was applied to the well for 600 seconds.

HCN4 [4] = molecular target: T1, HCN4; assay: HCN4 assay using the Sophion Qube (Example 50B); assay type: cell-based; settings: Sophion Qube protocol (SQ)
Description: Solutions for recording HCN currents were: [table] For HCN4, the cells were held at −30 mV and then stepped to −130 mV for 4 seconds before stepping back to −30 mV, this represents 1 experimental sweep. This voltage protocol was applied every 20 seconds for the duration of the experiment. Both the vehicle (0.3% DMSO) and full block (3 mM CsCl) addition periods were applied for 10 experimental sweeps each. The compound addition period was applied for 30 sweeps. The currents evoked by the step to −110 mV (HCN1 and HCN2) or −130 mV (HCN4) were measured for the analysis of the percentage inhibition by test compounds. The current amplitudes were measured by subtracting metric A from metric B (see FIG. 2) with inhibition calculated by normalising to the vehicle addition (0.3% DMSO) and full inhibition by 3 mM CsCl in the same well. […] In total, compound was applied to the well for 600 seconds.

SMILES	IC50 (HCN2 [3]) [nM]	IC50 (HCN4 [4]) [nM]	other results
Cc1ccc(C#N)nc1C[C@H](N)c1ncccc1-n1ncc2ccccc21 [Example 2, (S)-6-{2-[3-(1H-indazol-1-yl)pyridine-2-yl]-2-aminoethyl}-5-methylpyridin-2-carbonitrile hydrochloride]	–	–	bradycardia (heart rate) (Black6 strain mice; 0.2 mg/kg i.p.): minimal bradycardia; mechanical analgesia (von Frey pain threshold) (WT Black6 strain mice; 0.2 mg/kg i.p.): full analgesia; IC50 (HCN4 [1]): 500 nM; IC50 (HCN2 [2]): 30 nM; selective for HCN2 over HCN4 (HCN2 [2]): 21 times
N[C@@H](Cc1ccccn1)c1ncccc1-n1ncc2ccccc21 [Example 4, (S)-1-[3-(1H-indazole-1-yl)pyridine-2-yl]-2-(pyridine-2-yl)ethan-1-amine hydrochloride]	–	–	bradycardia (heart rate) (Black6 strain mice; 2 mg/kg i.p.): minimal bradycardia; mechanical analgesia (von Frey pain threshold) (WT Black6 strain mice; 2 mg/kg i.p.): maximal analgesia; mechanical analgesia (von Frey pain threshold) (WT Black6 strain mice; 10 mg/kg i.p.): maximal analgesia; IC50 (HCN4 [1]): > 30000 nM; IC50 (HCN2 [2]): 1600 nM; selective for HCN2 over HCN4 (HCN2 [2]): more than 19 times
Cc1ccc(C#N)nc1C[C@H](N)c1ncccc1-n1ncc2cc(Br)ccc21 [Example 36, hydrochloride]	770	4700	–
Cc1ccc2c(cnn2-c2cccnc2[C@@H](N)Cc2nc(C#N)ccc2F)c1 [Example 39, (S)-6-{2-Amino-2-[3-(5-methyl-1H-indazol-1-yl)pyridine-2-yl]-ethyl}-5-fluoropyr-idine-2-carbonitrile hydrochloride]	310	3700	–
CS(=O)(=O)c1ccc(F)c(C[C@H](N)c2ncccc2-n2ncc3cc(Cl)ccc32)n1 [Example 41, (S)-1-[3-(5-Chloro-1H-indazole-1-yl)-pyridine-2-yl]-2-(3-fluoro-6-methylsulfon-ylpyridine-2-yl)ethan-1-amine hydrochloride]	3900	> 30000	–
CS(=O)(=O)c1ccc(F)c(C[C@H](N)c2ncccc2-n2ncc3cc(Br)ccc32)n1 [Example 48, (S)-1-[3-(5-Bromo-1H-indazole-1-yl)pyridine-2-yl]-2-(3-fluoro-6-methylsulfonylpyr-idine-2-yl)ethan-1-amine hydrochloride]	2100	11100	–

Continued, in another order:

IC50 (HCN2 [3]) [nM]	IC50 (HCN4 [4]) [nM]	SMILES	other results
790	> 30000	N#Cc1ccc(F)c(C[C@H](N)c2ncccc2-n2ncc3cc(F)ccc32)n1 [Example 38, (S)-6-{2-Amino-2-[3-(5-fluoro-1H-indazol-1-yl)pyridine-2-yl]ethyl}-5-fluoropyridine-2-carbonitrile]	–
600	3400	N#Cc1ccc(F)c(C[C@H](N)c2ncccc2-n2ncc3cc(Cl)ccc32)n1 [Example 45, (S)-6-{2-Amino-2-[3-(5-chloro-1H-indazol-1-yl)pyridine-2-yl-ethyl}-5-fluoropyr-idine-2-carbonitrile hydrochloride]	–
630	10000	Cc1ccc(C#N)nc1C[C@H](N)c1ncccc1-n1ncc2cc(F)ccc21 [Example 47]	–
